As a reminder, the IC50 is the concentration at which inhibition is half-maximal.

This assay has as its target T1, Human O-GlcNAcase (His-Tagged hOGA) (Homo sapiens, UniProt O60502).
T1 sequence (O60502 1-916): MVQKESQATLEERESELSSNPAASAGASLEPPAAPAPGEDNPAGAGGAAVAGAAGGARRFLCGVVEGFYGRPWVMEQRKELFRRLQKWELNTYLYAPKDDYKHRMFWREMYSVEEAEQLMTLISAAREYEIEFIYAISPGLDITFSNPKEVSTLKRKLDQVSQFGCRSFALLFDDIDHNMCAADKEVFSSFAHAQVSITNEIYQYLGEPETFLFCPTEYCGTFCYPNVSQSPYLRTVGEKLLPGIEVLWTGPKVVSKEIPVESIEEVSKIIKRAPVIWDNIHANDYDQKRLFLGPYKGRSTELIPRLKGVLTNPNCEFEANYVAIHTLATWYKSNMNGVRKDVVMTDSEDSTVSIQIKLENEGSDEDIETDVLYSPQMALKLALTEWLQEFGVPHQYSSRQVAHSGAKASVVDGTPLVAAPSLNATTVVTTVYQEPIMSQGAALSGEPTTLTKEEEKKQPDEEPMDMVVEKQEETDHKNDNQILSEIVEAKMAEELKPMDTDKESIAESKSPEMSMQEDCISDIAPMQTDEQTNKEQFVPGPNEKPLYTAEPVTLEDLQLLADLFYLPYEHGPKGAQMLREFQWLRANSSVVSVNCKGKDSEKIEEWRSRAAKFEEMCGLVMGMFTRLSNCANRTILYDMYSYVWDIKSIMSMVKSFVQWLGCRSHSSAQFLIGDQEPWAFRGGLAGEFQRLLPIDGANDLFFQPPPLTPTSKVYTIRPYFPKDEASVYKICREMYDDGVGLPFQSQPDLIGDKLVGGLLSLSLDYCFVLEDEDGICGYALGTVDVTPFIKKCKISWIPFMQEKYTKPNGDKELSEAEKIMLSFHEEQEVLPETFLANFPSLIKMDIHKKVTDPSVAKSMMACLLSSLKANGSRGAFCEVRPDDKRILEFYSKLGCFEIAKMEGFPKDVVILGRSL
Nature of the assay: Human O-GlcNAcase enzyme inhibition assay. The format is biochemical. Particulars: 20 nM His-Tagged hOGA, 10 μM FL-GlcNAc, McIlvaine's Buffer pH 6.5, 60 min at room temperature, fluorescence; read-out: OGA IC50. The protocol:
Example B01: Human O-GlcNAcase Enzyme Inhibition Assay
5 μl of the appropriate concentration of a solution of inhibitor in Mcllvaine's Buffer (pH 6.5) in 2% DMSO (for a dose response curve calculation) is added into each well of a 384-well plate (Greiner, 781900). Then, 20 nM of His-Tagged hOGA and 10 μM of FL-GlcNAc (Fluorescein mono-beta-D-(2-deoxy-2-N-acetyl) glucopyranoside; Marker Gene Technologies Inc, M1485) were added to the 384-well plate for a final volume of 20 μl. After incubation for 60 min at room temperature, the reaction was terminated by the addition of 10 μL of stop buffer (200 mM glycine, pH 10.75). The level of fluorescence (λexc 485 nm; (λemm 520 nm) was read on a PHERAstar machine. The amount of fluorescence measured was plotted against the concentration of inhibitor to produce a sigmoidal dose response curve to calculate an IC50. All individual data was corrected by subtraction of the background (Thiamet 3 uM=100% inhibition) whilst 0.5% DMSO was considered as the control value (no inhibition).
As for `Cc1cc(CN2CCCC2c2ccc3c(c2)OCCO3)ccc1-c1cccnc1C` (racemic) [Example 71, 3-(4-((2-(2,3-dihydrobenzo[b] [1,4]dioxin-6-yl)pyrrolidin-1-yl)methyl)-2-methylphenyl)-2-methylpyridine], the IC50 lay in the range of 200 to 1000 nM.
To `Cn1cc(-c2ccc(CN3CCCC3c3ccc4c(c3)OCO4)cc2)cn1` (racemic) [Example 72, 4-(4-((2-(benzo[d] [1,3]dioxol-5-yl)pyrrolidin-1-yl)methyl)phenyl)-1-methyl-1H-pyrazole] belongs 200 to 1000 nM; to `O=c1[nH]nc(-c2ccc(CN3CCCC3c3ccc4c(c3)OCCO4)cc2)o1` (racemic) [Example 76, 5-(4-((2-(2,3-dihydrobenzo[b] [1,4]dioxin-6-yl)pyrrolidin-1-yl)methyl)phenyl)-1,3,4-oxadiazol-2(3H)-one], 200 to 1000 nM; to `c1cnnc(-c2ccc(CN3CCCC3c3ccc4c(c3)OCCO4)cc2)c1` (racemic) [Example 144], 50 to 200 nM.
Under `CN1CCN(c2ccc(CN3CCCC3c3ccc4c(c3)OCCO4)cc2)CC1` (racemic) [Example 146] stands 1000 to 10000 nM.
Under `Cc1cc(CN2CCCC2c2ccc3c(c2)OCCO3)ccc1-c1ccncc1` (racemic) [Example 147] stands 1000 to 10000 nM; under `CS(=O)(=O)c1cnc(-c2ccc(CN3CCCC3c3ccc4c(c3)OCCO4)cc2)nc1` (racemic) [Example 149], 50 to 200 nM.
As to `Cn1cc(-c2ccc(CN3CCCC3c3ccc4cccnc4c3)cc2)cn1` (racemic) [Example 150], the half-maximal inhibitory concentration (IC50) lay in the range of 50 to 200 nM.
To `COc1cccc(-c2ccc(CN3CCCC3c3ccc4c(c3)OCCO4)cc2)n1` (racemic) [Example 151] belongs 200 to 1000 nM; to `Cn1ccc(-c2ccc(CN3CCCC3c3ccc4c(c3)OCCO4)cc2)n1` (racemic) [Example 152], 200 to 1000 nM.
Under `Brc1cncc(Oc2ccc(CN3CCCC3c3ccc4c(c3)OCCO4)cc2)c1` (racemic) [Example 153] stands 200 to 1000 nM.
To `N#Cc1ccc(Oc2ccc(CN3CCCC3c3ccc4c(c3)OCCO4)cc2)cc1` (racemic) [Example 154] belongs 200 to 1000 nM.
Consider `Cc1cc(-c2ccc(CN3CCCC3c3ccc4c(c3)OCCO4)cn2)ccn1` (racemic) [Example 155], for which the IC50 was 200 to 1000 nM.
Regarding `Cc1cc(C(=O)Nc2ccc(CN3CCCC3c3ccc4c(c3)OCCO4)cc2)cc(C)n1` (racemic) [Example 156], the IC50 fell in the range of 200 to 1000 nM.
To `Fc1cccc(Oc2ccc(CN3CCCC3c3ccc4c(c3)OCCO4)cc2)n1` (racemic) [Example 157] belongs 200 to 1000 nM; to `Cc1cc(C(=O)Nc2ccc(CN3CCCC3c3ccc4c(c3)OCCO4)cc2)ccn1` (racemic) [Example 158], 200 to 1000 nM.
To `COc1ncc(-c2ccc(CN3CCCC3c3ccc4c(c3)OCCO4)cc2)cn1` (racemic) [Example 159] belongs less than 50 nM; to `Fc1ccc(-c2ccc(CN3CCCC3c3ccc4c(c3)OCCO4)cc2)nc1` (racemic) [Example 160], 50 to 200 nM.
Under `Cc1ccc(-c2nc(CN3CCCC3c3ccc4c(c3)OCO4)co2)cc1` (single isomer, unassigned) [Example 2, (S)-4-((2-(benzo[d] [1,3]dioxol-5-yl)pyrrolidin-1-yl)methyl)-2-(D-tolyl)oxazole or (R)-4-((2-(benzo[d] [1,3]dioxol-5-yl)pyrrolidin-1-yl)methyl)-2-(D-tolyl)oxazole] stands 1000 to 10000 nM; under `Cn1cc(-c2ccc(CN3CCCC3c3ccc4c(c3)OCCO4)cc2)cn1` (single isomer, unassigned) [Example 6, (S)-4-(4-((2-(2,3-dihydrobenzo[b] [1,4]dioxin-6-yl)pyrrolidin-1-yl)methyl)phenyl)-1-methyl-1H-pyrazole or (R)-4-(4-((2-(2,3-dihydrobenzo[b] [1,4]dioxin-6-yl)pyrrolidin-1-yl)methyl)phenyl)-1-methyl-1 H-pyrazole], less than 50 nM.

(Values after patent US12016852B2, “Pyrrolidine glycosidase inhibitors” (Asceneuron SA, priority 2018, dated 2024).)
